What was measured:
[1] = Binding constant with Fe^2+ ions by UV/Vis titration
Procedure: (§1) The association of tryptanthrin derivatives with ferrous and ferric ions was studied by UV/Vis spectroscopy in aqueous solution (water/DMSO, 99:1, v/v). […] Association constants (K) were calculated from absorbance changes (AA) in the spectral maximum of the derivative and in the spectral maximum of its complexes with Fe^2+/3+ ions by regression analysis. The concentration of tryptanthrin derivatives was 100 μM. The concentration of Fe^2+ and Fe^3+ ions fluctuated in the range of 0-5 mM. UV/Vis spectra were measured with a Shimadzu spectrophotometer in the range 220-900 nm with a step of 1 nm in a 1 cm plastic cuvette at a scanning speed of 300 nm.min^-1. The effect of different concentrations of Fe ions on the absorbance of substance 1 (PAA-TSC) is shown in FIGS. 5 and 6; that for substance 5 […]-TSC) in FIGS. 7 and 8.

[2] = Binding constant with Fe^3+ ions by UV/Vis titration
Procedure: as §1

RNA = assay: Interaction with RNA by UV/Vis titration; assay type: binding
SARS-COV-2 = assay: Antiviral effect: SARS-COV-2 RNA production in infected Vero cells (RT-qPCR of E-gene); assay type: cell-based; details: Vero in vitro model; 0-10 μM; 24 and 48 hours
Procedure: The cells in question (Vero cell line from African green monkey kidney; 1.5×10^5 cells per well) were infected with a SARS-COV-2 isolate provided by the Bioconservation Section of Techonin. The infectious inoculum contained 2.38×10^7 copies of the SARS-COV-2 E-gene. After 1 h inoculation, cells were supplemented with 1 ml of Dulbecco's modified Eagle's medium containing 2% fetal bovine serum (2% FBS-DMEM) and increasing concentrations (0-10 μM) of tryptanthrin derivatives 1 (PAA-TSC) and 5 (T8H-TSC), resp. After 24 and 48 hours of incubation, the growth of SARS-COV-2 was characterized in an aliquot of the culture supernatant by one-step RT-qPCR.
Viral RNA was isolated from 200 μl culture supernatant using magnetic beads. SARS-CoV-2 RNA was quantified by amplifying the E-gene of SARS-COV-2 (Generi Biotech) using the SensiFast Probe One-Step Kit (BioLine) and Light Cycler 480 II (Roche) using absolute quantification and calibration curve.

DNA from salmon sperm = assay: Interaction with DNA by UV/Vis titration; assay type: binding
[3] = Interaction of tryptanthrin derivatives with transition metal ions (UV/Vis spectroscopy); assay type: binding; details: receptor 100 μM, ion 5000 μM
Procedure: First, the interaction of tryptanthrin derivatives 1 and 5 with metal ions was studied using UV/Vis spectroscopy. The receptor concentration was 100 μM and the ion concentration was 5000 μM.

[4] = stoichiometry (ion:ligand) 1:1, water/DMSO 99:1, derivative 100 μM
[5] = stoichiometry (NK:ligand) 1:2, phosphate buffer pH 7.00

Structure (SMILES): CC(CC1(O)c2ccccc2-n2c1nc1ccccc1c2=O)=NNC(N)=S (mixture of isomers) [derivative 1]
- Log (K) association constant [1, 4]: 1.5
- Log (K) association constant [2, 4]: 6.0
- Log (K) association constant ([2]; stoichiometry (ion:ligand) 1:2, water/DMSO 99:1, derivative 100 μM): 10.2
- Log (K) association constant (RNA; stoichiometry (NK:ligand) 2:1, phosphate buffer pH 7.00): 8.7
- inhibition of virus particle / CoV-2 RNA production (SARS-COV-2): inhibition of virus particle production
- Log (K) association constant (DNA from salmon sperm; stoichiometry (NK:ligand) 1:1, phosphate buffer pH 7.00): 7.4
- absorbance changes after addition of metal ions (selectivity for Fe^2+/Fe^3+) [3]: significant absorbance changes were observed only in the case of ferrous and ferric ions

Structure (SMILES): NC(=S)NN=C1c2ccccc2-n2c1nc1ccccc1c2=O [derivative 5]
- Log (K) association constant [1, 4]: 4.9
- Log (K) association constant ([1]; stoichiometry (ion:ligand) 2:1, water/DMSO 99:1, derivative 100 μM): 7.1
- Log (K) association constant (RNA; [5]): 7.3
- inhibition of virus particle / CoV-2 RNA production (SARS-COV-2): inhibition of viral particle production
- Log (K) association constant (DNA from salmon sperm; [5]): 6.0
- absorbance changes after addition of metal ions (selectivity for Fe^2+/Fe^3+) [3]: significant absorbance changes were observed only in the case of ferrous and ferric ions

From patent US20250171449A1, “TRYPTANTHRIN DERIVATIVES WITH THIOSEMICARBAZONE SUBSTITUTION AND USE THEREOF” (UNIVERZITA KARLOVA, priority 2022, published 2025)
